Measurements taken from ChEMBL document CHEMBL5321272 (J Med Chem, 2023).
Activity calls are given as the source filed them. The calls are words filed in the database; no cut-off is given here.

Columns and labels:
[1] = biological target: T1, Serine/threonine-protein kinase Chk1 (Homo sapiens, UniProt O14757)
T1 sequence (O14757 whole entry): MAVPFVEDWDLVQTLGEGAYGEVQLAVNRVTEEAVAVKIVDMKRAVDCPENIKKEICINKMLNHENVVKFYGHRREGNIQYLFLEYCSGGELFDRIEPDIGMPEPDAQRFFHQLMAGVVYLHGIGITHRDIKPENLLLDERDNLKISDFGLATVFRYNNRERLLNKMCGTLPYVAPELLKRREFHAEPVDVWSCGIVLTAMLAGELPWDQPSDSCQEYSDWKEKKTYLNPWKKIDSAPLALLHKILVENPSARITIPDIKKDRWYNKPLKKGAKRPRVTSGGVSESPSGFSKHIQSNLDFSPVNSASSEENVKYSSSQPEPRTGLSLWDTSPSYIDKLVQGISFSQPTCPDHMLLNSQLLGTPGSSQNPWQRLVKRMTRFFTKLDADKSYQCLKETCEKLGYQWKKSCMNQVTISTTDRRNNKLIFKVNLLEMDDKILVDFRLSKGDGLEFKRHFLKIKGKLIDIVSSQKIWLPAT
Description: Inhibition of CHK1 (unknown origin) using peptide substrate S1 and ATP as substrate incubated for 1 hr by HTRF assay

[2] = biological target: Receptor-type tyrosine-protein kinase FLT3 (Homo sapiens, UniProt P36888, D835Y)
Description: Inhibition of FLT3 D835Y mutant (unknown origin) using peptide substrate TK-S and ATP as substrate incubated for 1 hr by HTRF assay

MV4-11 = assay: cells; conditions: Homo sapiens, MV4-11, 72 h
Description: Antiproliferative activity against human MV4-11 cells assessed as reduction in cell viability incubated for 72 hrs by CellTiter 96 Aqueous One Solution Cell Proliferation Assay

BaF3 [3] = assay: Antiproliferative activity against mouse BaF3 cells harboring FLT3 D835V mutant assessed as reduction in cell viability incubated for 72 hrs by CellTiter 96 Aqueous One Solution Cell Proliferation Assay; format: functional, cell-based
BaF3 [4] = assay: Antiproliferative activity against mouse BaF3 cells harboring FLT3 D835F mutant assessed as reduction in cell viability incubated for 72 hrs by CellTiter 96 Aqueous One Solution Cell Proliferation Assay; format: functional, cell-based
[5] = biological target: Mast/stem cell growth factor receptor Kit (Homo sapiens, UniProt P10721); assay: Inhibition of c-KIT (unknown origin) using peptide substrate TK-S and ATP as substrate incubated for 1 hr by HTRF assay; format: toxicity
Chain of Mast/stem cell growth factor receptor Kit (P10721 whole entry): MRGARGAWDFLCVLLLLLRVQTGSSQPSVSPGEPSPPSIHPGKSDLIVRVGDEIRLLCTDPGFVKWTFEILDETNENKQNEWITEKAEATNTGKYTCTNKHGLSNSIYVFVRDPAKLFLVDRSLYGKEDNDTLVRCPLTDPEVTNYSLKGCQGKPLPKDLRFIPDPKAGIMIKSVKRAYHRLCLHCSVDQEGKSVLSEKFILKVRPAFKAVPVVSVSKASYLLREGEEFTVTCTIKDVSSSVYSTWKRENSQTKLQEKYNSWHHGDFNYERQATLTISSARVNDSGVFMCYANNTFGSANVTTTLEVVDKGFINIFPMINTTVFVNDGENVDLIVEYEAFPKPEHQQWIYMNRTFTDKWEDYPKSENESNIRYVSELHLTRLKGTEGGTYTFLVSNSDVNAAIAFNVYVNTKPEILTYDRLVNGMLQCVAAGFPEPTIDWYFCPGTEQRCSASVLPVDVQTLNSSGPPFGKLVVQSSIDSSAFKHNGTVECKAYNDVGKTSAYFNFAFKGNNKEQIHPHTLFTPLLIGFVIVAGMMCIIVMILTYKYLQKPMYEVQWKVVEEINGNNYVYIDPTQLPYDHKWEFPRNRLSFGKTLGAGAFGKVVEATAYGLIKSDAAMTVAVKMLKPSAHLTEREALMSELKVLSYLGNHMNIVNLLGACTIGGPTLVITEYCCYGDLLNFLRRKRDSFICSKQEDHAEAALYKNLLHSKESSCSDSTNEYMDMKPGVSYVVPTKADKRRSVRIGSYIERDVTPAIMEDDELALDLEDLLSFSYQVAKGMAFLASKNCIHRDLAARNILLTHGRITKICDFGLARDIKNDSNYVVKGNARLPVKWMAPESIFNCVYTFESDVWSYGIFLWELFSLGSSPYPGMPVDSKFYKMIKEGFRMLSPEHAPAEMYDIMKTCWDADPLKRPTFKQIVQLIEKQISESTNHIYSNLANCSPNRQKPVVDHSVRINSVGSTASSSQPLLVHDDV

[6] = Selectivity ratio of IC50 for inhibition of c-KIT (unknown origin) to IC50 for inhibition of FLT3 D835Y mutant (unknown origin)
BaF3 [7] = assay: Antiproliferative activity against mouse BaF3 cells harboring FLT3 F691L mutant assessed as reduction in cell viability incubated for 72 hrs by CellTiter 96 Aqueous One Solution Cell Proliferation Assay; format: functional, cell-based
hERG (KCNH2) = hERG (KCNH2) (Homo sapiens, UniProt Q12809); assay: Inhibition of hERG expressed in HEK293 cells at 20 uM by whole cell patch clamp analysis; format: toxicity, cell-based; conditions: HEK293 cells expressing hERG
Chain of hERG (KCNH2) (Q12809 whole entry): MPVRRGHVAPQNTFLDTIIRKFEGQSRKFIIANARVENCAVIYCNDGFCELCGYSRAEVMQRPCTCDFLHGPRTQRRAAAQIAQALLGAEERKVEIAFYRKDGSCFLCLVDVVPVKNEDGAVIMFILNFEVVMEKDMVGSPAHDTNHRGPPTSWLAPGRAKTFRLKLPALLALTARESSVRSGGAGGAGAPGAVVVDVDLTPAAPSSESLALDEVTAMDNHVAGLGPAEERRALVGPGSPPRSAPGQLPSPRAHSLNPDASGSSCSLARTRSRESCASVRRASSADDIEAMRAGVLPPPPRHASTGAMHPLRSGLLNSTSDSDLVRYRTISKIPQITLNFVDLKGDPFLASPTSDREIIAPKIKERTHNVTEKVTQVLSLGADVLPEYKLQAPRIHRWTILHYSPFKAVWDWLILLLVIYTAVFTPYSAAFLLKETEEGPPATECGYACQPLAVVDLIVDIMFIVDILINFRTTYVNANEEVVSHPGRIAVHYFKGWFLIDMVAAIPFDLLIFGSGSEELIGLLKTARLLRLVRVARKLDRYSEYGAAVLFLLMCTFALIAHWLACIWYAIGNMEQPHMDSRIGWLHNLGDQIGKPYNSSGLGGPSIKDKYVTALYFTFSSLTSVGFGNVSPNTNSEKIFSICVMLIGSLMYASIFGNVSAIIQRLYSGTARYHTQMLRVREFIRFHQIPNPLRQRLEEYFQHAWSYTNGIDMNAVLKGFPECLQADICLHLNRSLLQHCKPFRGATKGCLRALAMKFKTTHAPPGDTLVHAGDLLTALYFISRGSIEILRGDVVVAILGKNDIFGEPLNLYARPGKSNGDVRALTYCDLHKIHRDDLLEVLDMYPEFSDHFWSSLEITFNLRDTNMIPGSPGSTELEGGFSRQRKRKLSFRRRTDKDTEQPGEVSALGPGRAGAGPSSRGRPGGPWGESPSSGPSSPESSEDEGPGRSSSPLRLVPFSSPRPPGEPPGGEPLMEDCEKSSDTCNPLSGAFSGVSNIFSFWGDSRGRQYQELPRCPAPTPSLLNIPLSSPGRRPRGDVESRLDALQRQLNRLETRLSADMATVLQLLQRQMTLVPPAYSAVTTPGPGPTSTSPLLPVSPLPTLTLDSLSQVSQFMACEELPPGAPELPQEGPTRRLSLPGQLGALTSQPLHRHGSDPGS

CC(C)(O)CC(=O)N1CCc2cc(Nc3ncc(C(F)(F)F)c(NCCN)n3)ccc2C1
IC50 [1]: 135 nM
IC50 [2]: 38.2 nM

CC(C)(O)CC(=O)N1CCc2cc(Nc3ncc(C(F)(F)F)c(N[C@H]4CC[C@@H](NS(C)(=O)=O)CC4)n3)ccc2C1
IC50 [1]: 827 nM
IC50 (MV4-11): 6.21 nM
IC50 [2]: 3.8 nM

CC(=O)N1CCc2cc(Nc3ncc(C(F)(F)F)c(N[C@H]4CC[C@@H](N)CC4)n3)ccc21
IC50 [1]: 10.7 nM
Activity (BaF3 [3]): Active
Activity (BaF3 [4]): Active
IC50 [5]: 4780 nM
Ratio IC50 [6]: 4870
IC50 (MV4-11): 2.07 nM
Activity (BaF3 [7]): Active
IC50 [2]: 0.98 nM

CC(C)(O)CC(=O)N1CCc2cc(Nc3ncc(C(F)(F)F)c(NC4CCNCC4)n3)ccc2C1
IC50 [1]: 227 nM
IC50 (MV4-11): 22.4 nM
IC50 [2]: 40.9 nM

CC(C)(O)C(=O)N1CCc2cc(Nc3ncc(C(F)(F)F)c(N[C@H]4CC[C@@H](N)CC4)n3)ccc2C1
IC50 [1]: 8.6 nM
inhibition at 20 µM (hERG (KCNH2)): 17.7%
IC50 [5]: 902 nM
Ratio IC50 [6]: 589
IC50 (MV4-11): 0.38 nM
IC50 [2]: 1.53 nM

CC(C)(N)CCNc1nc(Nc2ccc3c(c2)CCN(C(=O)CC(C)(C)O)C3)ncc1C(F)(F)F
IC50 [1]: 219 nM
inhibition at 20 µM (hERG (KCNH2)): 31.9%
IC50 (MV4-11): 0.62 nM
IC50 [2]: 3.32 nM

CC(C)(O)CC(=O)N1CCc2cc(Nc3ncc(C(F)(F)F)c(N[C@H]4CCCC[C@H]4N)n3)ccc2C1
IC50 [1]: > 10000 nM
IC50 [2]: 1450 nM

CNCCCNc1nc(Nc2ccc3c(c2)CCN(C(=O)CC(C)(C)O)C3)ncc1C(F)(F)F
IC50 [1]: 61.6 nM
IC50 (MV4-11): 14.2 nM
IC50 [2]: 27.3 nM

CC(C)(O)Cn1ccc2cc(Nc3ncc(C(F)(F)F)c(N[C@H]4C[C@H]5CC[C@@H](C4)N5)n3)ccc2c1=O
IC50 [1]: 2020 nM
IC50 (MV4-11): > 5000 nM
IC50 [2]: 488 nM

CC(C)(O)CC(=O)N1CCc2cc(Nc3ncc(C(F)(F)F)c(N[C@H]4CC[C@@H](N)CC4)n3)ccc21
IC50 [1]: 19 nM
Activity (BaF3 [3]): Active
Activity (BaF3 [4]): Active
IC50 [5]: 5060 nM
Ratio IC50 [6]: 1760
IC50 (MV4-11): 2.21 nM
Activity (BaF3 [7]): Active
IC50 [2]: 2.88 nM

Cn1cnc2cc(Nc3ncc(C(F)(F)F)c(N[C@H]4CC[C@@H](N)CC4)n3)ccc2c1=O
IC50 [1]: 223 nM
inhibition at 20 µM (hERG (KCNH2)): 48.3%
IC50 (MV4-11): 1.77 nM
IC50 [2]: 8.8 nM

CC(C)(O)CC(=O)N1CCc2cc(Nc3ncc(C(F)(F)F)c(NCCCCCN)n3)ccc2C1
IC50 [1]: 159 nM
IC50 (MV4-11): 12.7 nM
IC50 [2]: 3.19 nM

CC(C)(O)CC(=O)N1CCc2cc(Nc3ncc(C(F)(F)F)c(NCCCCN)n3)ccc2C1
IC50 [1]: 41.1 nM
IC50 (MV4-11): 0.61 nM
IC50 [2]: 1.5 nM

CC(C)(O)CC(=O)N1CCc2nc(Nc3ncc(C(F)(F)F)c(N[C@H]4CC[C@@H](N)CC4)n3)ccc2C1
IC50 [1]: 362 nM
IC50 (MV4-11): 21.4 nM
IC50 [2]: 77.1 nM

CC(C)(O)Cn1ncc2cc(Nc3ncc(C(F)(F)F)c(N[C@H]4CC[C@@H](N)CC4)n3)ccc2c1=O
IC50 [1]: 66.9 nM
inhibition at 20 µM (hERG (KCNH2)): 48.1%
IC50 (MV4-11): 1.1 nM
IC50 [2]: 2.69 nM

CC(=O)N[C@H]1CC[C@@H](Nc2nc(Nc3ccc4c(c3)CCN(C(=O)CC(C)(C)O)C4)ncc2C(F)(F)F)CC1
IC50 [1]: 1090 nM
IC50 (MV4-11): 20.7 nM
IC50 [2]: 18.9 nM

CC(C)(O)CC(=O)N1CCc2cc(Nc3ncc(C(F)(F)F)c(NCCCNS(C)(=O)=O)n3)ccc2C1
IC50 [1]: 1950 nM
IC50 [2]: 18.1 nM

CC(C)(O)CC(=O)N1CCc2cc(Nc3ncc(C(F)(F)F)c(NCC(C)(C)CN)n3)ccc2C1
IC50 [1]: 1060 nM
IC50 (MV4-11): 27.9 nM
IC50 [2]: 91.4 nM

CC(C)(O)Cn1ccc2cc(Nc3ncc(C(F)(F)F)c(NC4CC5(CNC5)C4)n3)ccc2c1=O
IC50 [1]: 80.1 nM
IC50 (MV4-11): 66.2 nM
IC50 [2]: 26.6 nM

N#Cc1cnc(Nc2cc(NC[C@H]3CNCCO3)c(C(F)(F)F)cn2)cn1 [SRA-737]
IC50 (MV4-11): 245 nM

CC(C)(O)Cn1ccc2cc(Nc3ncc(C(F)(F)F)c(N[C@H]4CC[C@@H](N)CC4)n3)ccc2c1=O
IC50 [1]: 124 nM
inhibition at 20 µM (hERG (KCNH2)): 22.1%
IC50 (MV4-11): 0.62 nM
IC50 [2]: 3.91 nM

CC(C)(O)CC(=O)N1CCc2cc(Nc3ncc(C(F)(F)F)c(NCC4CCNCC4)n3)ccc2C1
IC50 [1]: 87.3 nM
IC50 (MV4-11): 6.79 nM
IC50 [2]: 10.4 nM

CC(C)(N)CNc1nc(Nc2ccc3c(c2)CCN(C(=O)CC(C)(C)O)C3)ncc1C(F)(F)F
IC50 [1]: 2000 nM
IC50 (MV4-11): 39.7 nM
IC50 [2]: 166 nM

Cn1ccc2cc(Nc3ncc(C(F)(F)F)c(N[C@H]4CC[C@@H](N)CC4)n3)ccc2c1=O
IC50 [1]: 26.3 nM
inhibition at 20 µM (hERG (KCNH2)): 75.9%

CC(C)(O)C(=O)N1CCc2nc(Nc3ncc(C(F)(F)F)c(N[C@H]4CC[C@@H](N)CC4)n3)ccc2C1
IC50 [1]: 250 nM
IC50 (MV4-11): 9.51 nM
IC50 [2]: 55.4 nM

CC(C)(O)CC(=O)N1CCc2cc(Nc3ncc(C(F)(F)F)c(NC[C@H]4CCCNC4)n3)ccc2C1
IC50 [1]: 86.5 nM
IC50 (MV4-11): 2.71 nM
IC50 [2]: 12 nM

C[C@H](O)C(=O)N1CCc2cc(Nc3ncc(C(F)(F)F)c(N[C@H]4CC[C@@H](N)CC4)n3)ccc2C1
IC50 [1]: 5.1 nM
inhibition at 20 µM (hERG (KCNH2)): 13.6%
IC50 [5]: 704 nM
Ratio IC50 [6]: 766
IC50 (MV4-11): 0.28 nM
IC50 [2]: 0.92 nM

CC(=O)N1CCc2ccc(Nc3ncc(C(F)(F)F)c(N[C@H]4CC[C@@H](N)CC4)n3)cc21
IC50 [1]: 58 nM
IC50 (MV4-11): 36 nM
IC50 [2]: 9.84 nM

CC(C)(O)Cn1cnc2cc(Nc3ncc(C(F)(F)F)c(N[C@H]4CC[C@@H](N)CC4)n3)ccc2c1=O
IC50 [1]: 206 nM
inhibition at 20 µM (hERG (KCNH2)): 6.82%
IC50 (MV4-11): 1.59 nM
IC50 [2]: 4.56 nM

CC(C)(O)CC(=O)N1CCc2cc(Nc3ncc(C(F)(F)F)c(NC[C@@H]4CCCNC4)n3)ccc2C1
IC50 [1]: 336 nM
IC50 (MV4-11): 8.26 nM
IC50 [2]: 24.1 nM

CC(C)(O)CC(=O)N1CCc2cc(Nc3ncc(C(F)(F)F)c(N[C@@H]4CCCC[C@@H]4N)n3)ccc2C1
IC50 [1]: 1970 nM
IC50 [2]: 224 nM

CC(C)(O)CC(=O)N1CCc2cc(Nc3ncc(C(F)(F)F)c(NCCCN)n3)ccc2C1
IC50 [1]: 34.5 nM
inhibition at 20 µM (hERG (KCNH2)): 11.2%
IC50 (MV4-11): 2.38 nM
IC50 [2]: 3.79 nM

CC(=O)NCCCNc1nc(Nc2ccc3c(c2)CCN(C(=O)CC(C)(C)O)C3)ncc1C(F)(F)F
IC50 [1]: 765 nM
IC50 (MV4-11): 44.5 nM
IC50 [2]: 16.1 nM

CC(=O)N1CCc2nc(Nc3ncc(C(F)(F)F)c(N[C@H]4CC[C@@H](N)CC4)n3)ccc2C1
IC50 [1]: 301 nM
IC50 (MV4-11): 1.45 nM
IC50 [2]: 61.4 nM

CCn1ccc2cc(Nc3ncc(C(F)(F)F)c(N[C@H]4CC[C@@H](N)CC4)n3)ccc2c1=O
IC50 [1]: 26.7 nM
IC50 (MV4-11): 0.99 nM
IC50 [2]: 1.59 nM

CC(C)(O)CC(=O)N1CCc2cc(Nc3ncc(C(F)(F)F)c(N[C@@H]4CCCNC4)n3)ccc2C1
IC50 [1]: 35.2 nM
inhibition at 20 µM (hERG (KCNH2)): 35%
IC50 (MV4-11): 2.26 nM
IC50 [2]: 4.03 nM

CC(C)(O)CC(=O)N1CCc2cc(Nc3ncc(C(F)(F)F)c(N[C@H]4CC[C@H](N)CC4)n3)ccc2C1
IC50 [1]: 96 nM
IC50 (MV4-11): 5.89 nM
IC50 [2]: 12 nM

CC(C)(O)CC(=O)N1CCc2cc(Nc3ncc(C(F)(F)F)c(N[C@H]4CCCNC4)n3)ccc2C1
IC50 [1]: 952 nM
IC50 [2]: 311 nM

Cn1ncc2cc(Nc3ncc(C(F)(F)F)c(N[C@H]4CC[C@@H](N)CC4)n3)ccc2c1=O
IC50 [1]: 58.5 nM
inhibition at 20 µM (hERG (KCNH2)): 81.9%
IC50 (MV4-11): 1.36 nM
IC50 [2]: 4.22 nM
